Measurements taken from paper PMC6471218, “Anti-Diabetic Activity of 2,3,6-Tribromo-4,5-Dihydroxybenzyl Derivatives from Symphyocladia latiuscula through PTP1B Downregulation and α-Glucosidase Inhibition” (Marine Drugs, 2019).
Read-outs that look alike come from different tables or passages of the source.

Tests used:
[1] = molecular target: T1, Human recombinant protein tyrosine phosphatase (PTP1B) (Homo sapiens, UniProt P18031); experiment: PTP1B inhibitory assay with pNPP substrate; type: biochemical
T1 sequence (P18031 1-435): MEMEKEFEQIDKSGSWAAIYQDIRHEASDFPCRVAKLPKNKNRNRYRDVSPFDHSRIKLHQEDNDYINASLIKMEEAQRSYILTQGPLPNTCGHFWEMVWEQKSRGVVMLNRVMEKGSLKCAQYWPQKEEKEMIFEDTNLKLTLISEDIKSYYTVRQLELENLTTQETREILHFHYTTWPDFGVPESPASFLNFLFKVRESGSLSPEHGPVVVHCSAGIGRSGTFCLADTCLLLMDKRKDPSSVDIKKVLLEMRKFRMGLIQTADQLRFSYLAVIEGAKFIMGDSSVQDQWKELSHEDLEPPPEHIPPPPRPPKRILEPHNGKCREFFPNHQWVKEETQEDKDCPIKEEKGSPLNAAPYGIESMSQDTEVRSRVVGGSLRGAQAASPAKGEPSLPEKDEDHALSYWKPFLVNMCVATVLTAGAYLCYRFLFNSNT
Source text: (§1) The initial step in evaluating anti-diabetic secondary metabolites from Symphyocladia latiuscula was the evaluation of PTP1B and α-glucosidase inhibition potentials of methanol extract and fractions obtained by MeOH extract partition with different solvents using pNPP and pNPG as substrates, respectively. Enzyme inhibition levels are expressed as mean IC50 values with standard deviation.
(§2) Human recombinant protein tyrosine phosphatase (PTP1B) was purchased from Biomol International LP (Plymouth Meeting, PA, USA). Fetal bovine serum (FBS), minimum essential medium (MEM), sodium pyruvate, penicillin-streptomycin, and nonessential amino acids were purchased from Gibco-BRL Life Technologies (Grand Island, NY, USA). The fluorescent D-glucose analogue and 2-NBDG was purchased from Life Technologies (Carlsbad, CA, USA). Human insulin was purchased from Eli Lilly (Fegersheim, France). All other chemicals and solvents used were of reagent grade and acquired from commercial sources.
The potential for MeOH extract, solvent-soluble fractions, and isolated compounds to inhibit PTP1B enzyme activity was evaluated using the pNPP substrate. Experimental conditions and laboratory procedures were similar to those published in our previous report.

[2] = test system: insulin-resistant HepG2 cells; experiment: 2-NBDG glucose uptake assay in insulin-resistant HepG2 cells; type: cell-based, human; settings: 24 h; for Insulin-stimulated glucose uptake compared with rosiglitazone 10 µM (112%): 20 µM
Experimental: Figure 8 Effect of bromophenols 1–3 on insulin-stimulated glucose uptake in insulin-resistant HepG2 cells. The glucose uptake assay was performed using the fluorescent D-glucose analogue 2-NBDG and 10^−6 mol/L insulin was to induce insulin resistance. Insulin-resistant HepG2 cells were treated with the indicated concentrations of test compounds or rosiglitazone for 24 h, and insulin-stimulated 2-NBDG uptake was measured. Values represent the mean ± standard deviation of triplicate experiments. ^a p < 0.01 indicates significant differences from the control group; ^b p < 0.05, ^c p < 0.01, and ^d p < 0.001 indicate significant differences from the insulin-resistant group.
(§3) HepG2 (human hepatocarcinoma) cells obtained from the American Type Culture Collection (HB-8065; Manassas, VA, USA) were maintained in 10% FBS MEM at 37 °C in a humidified atmosphere with 5% CO2. Cytotoxicity was evaluated using the MTT assay. Following previously described methods, an insulin-resistant HepG2 cell model was established. All other experimental conditions and procedures were similar to those reported in our previous paper.
The relative percent glucose uptake upon sample treatment in IR-HepG2 cells was evaluated by a flourimetric method using the fluorescent D-glucose analog 2-NBDG and measured on a fluorescence microplate reader (FL×800, Bio-Tek Instruments, Inc., Winooski, VT, USA) at 485 nm excitation and 528 nm emission wavelengths. Detailed experimental conditions and procedures are reported in our previous publication.

[3] = test system: PTP1B expression in insulin-resistant HepG2 cells; experiment: PTP1B expression level in insulin-resistant HepG2 cells (western blot); type: cell-based, human; settings: 24 h treatment, then 100 nM insulin 30 min
Experimental: Figure 9 Effects of bromophenol 1 (A), 2 (B), and 3 (C) on protein tyrosine phosphatase 1B (PTP1B) expression levels in insulin-resistant HepG2 cells. Western blotting was performed and protein band intensities were quantified by densitometric analysis. Upper panels display representative blots. Equal protein loading was ensured and normalized against β-actin levels. Values represent the mean ± standard deviation of three independent experiments; ^a p < 0.001 indicates significant differences from the control group; ^b p < 0.05, ^c p < 0.01, and ^d p < 0.001 indicate significant differences from the insulin-resistant group.
Insulin-resistant HepG2 cells were exposed to a range of concentrations of 1–3 or rosiglitazone (10 μM) in 24-well plates for 24 h followed by stimulation with 100 nM insulin diluted in SFMEM for 30 min. Cells were then washed twice with ice cold PBS, collected, and lysed with sample buffer. Protein was quantified by the modified Bradford protein assay kit using bovine serum albumin (BSA) as a standard, electrophoresed on sodium dodecyl sulfate-polyacrylamide gels (Bio-Rad, Hercules, CA, USA), and then transferred to polyvinylidene difluoride (PVDF) membranes (Immobilon-P; Millipore, Burlington, MA, USA) using the Pierce G2 Fast Blotter (Thermo Fisher Scientific Inc, USA) at 100 V for 60 min in a standard semi-dry system. […]

α-glucosidase = molecular target: α-glucosidase; set-up: method as in ref 24, 34 (Kurihara et al.); settings: different enzyme and pNPG concentrations; 34 (Kurihara et al.); read-out: 50% α-glucosidase enzyme inhibition concentration (literature); cited from earlier work
yeast α-glucosidase [4] = molecular target: T2, yeast α-glucosidase (Saccharomyces cerevisiae, UniProt P53341); experiment: biochemical; type: biochemical; settings: for Enhancement of α-glucosidase inhibitory activity compared to 2: ratio of IC50 values
T2 construct: purchased Sigma-Aldrich Co. (St. Louis, MO, USA)
T2 sequence (P53341 whole entry): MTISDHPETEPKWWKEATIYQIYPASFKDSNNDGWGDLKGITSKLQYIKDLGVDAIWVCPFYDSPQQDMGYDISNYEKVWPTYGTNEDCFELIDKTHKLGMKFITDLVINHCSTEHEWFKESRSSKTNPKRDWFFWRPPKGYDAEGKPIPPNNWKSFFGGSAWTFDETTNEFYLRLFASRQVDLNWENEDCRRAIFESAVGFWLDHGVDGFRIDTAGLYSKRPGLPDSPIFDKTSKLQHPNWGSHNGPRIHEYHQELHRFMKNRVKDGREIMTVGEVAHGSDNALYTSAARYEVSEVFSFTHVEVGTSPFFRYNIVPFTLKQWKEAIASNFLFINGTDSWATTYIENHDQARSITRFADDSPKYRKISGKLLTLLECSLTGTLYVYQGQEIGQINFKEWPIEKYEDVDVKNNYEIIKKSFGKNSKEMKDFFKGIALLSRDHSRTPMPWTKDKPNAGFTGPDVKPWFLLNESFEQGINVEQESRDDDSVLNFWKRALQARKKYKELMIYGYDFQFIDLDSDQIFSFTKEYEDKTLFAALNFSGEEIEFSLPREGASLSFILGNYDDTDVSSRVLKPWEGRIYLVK
Source text: as §1, §2
The α-glucosidase inhibition assay procedure, previously reported by Li et al., was followed to measure the release of […] at 405 nm using a microplate spectrophotometer (Molecular Devices).

yeast α-glucosidase [5] = molecular target: T2, yeast α-glucosidase; experiment: Kinetic study against α-glucosidase (Lineweaver–Burk and Dixon plots); type: biochemical; settings: for α-Glucosidase Inhibition Type: determined from Lineweaver–Burk plots
Experimental: (§4) In competitive inhibition mode (Figure 2C), double reciprocal plots yielded a group of lines with the same y-intercept (constant Vmax) but different x-intercepts (varying Km values). […] The double reciprocal plots of α-glucosidase enzyme inhibition by 3 yielded a group of lines intersecting at a single point in the second quadrant.
(§5) The modes of enzyme inhibition were evaluated by monitoring the effects of different concentrations of the substrates (1, 2, or 4 mM pNPP for PTP1B and 1.25, 2.5, or 5 mM pNPG for α-glucosidase) on Dixon plots (single reciprocal plots). […] The enzymatic procedure consisted of the same aforementioned assay method. The inhibition constants (Ki) were determined by interpreting Dixon plots, where the value of the x-intercept indicated the value of −Ki.

[6] = molecular target: T1, Human recombinant protein tyrosine phosphatase (PTP1B); experiment: Kinetic study against PTP1B (Lineweaver–Burk and Dixon plots); type: biochemical; settings: for PTP1B Inhibition Type: determined from Lineweaver–Burk plots
Experimental: as §4, §5

PTP1B = test system: PTP1B; set-up: method as in ref 35 (Liu et al.); settings: ref 35 (Liu et al.); read-out: PTP1B IC50 (literature); cited from earlier work
HepG2 cells = experiment: MTT cytotoxicity assay in HepG2 cells; type: cell-based, human; settings: 25, 50 and 100 μM, 24 h
Experimental: Cytotoxicity of bromophenols on HepG2 cells was evaluated using a 3-(4,5-dimethylthiazol-2-yl)-2,5-diphenyl tetrazolium bromide (MTT) assay. […] So, considering enzyme inhibition activity and toxicity in HepG2 cells, we performed cell-based experiments at 5, 10, and 20 µM concentrations.
Figure 7 Effect of bromophenols 1–3 on cell viability in HepG2 cells. Cell viability was determined using the 3-(4,5-dimethylthiazol-2-yl)-2,5-diphenyl tetrazolium bromide (MTT) method. Cells were pretreated with the indicated concentrations (25, 50, and 100 μM) of test compounds for 24 h. Data shown represent mean ± standard deviation of triplicate experiments. ^a p < 0.05 indicates significant differences from the control group.
as §3

SMILES | IC50 ([1]; mean ± SD, n = 3, read-out: PTP1B IC50) | Insulin-stimulated glucose uptake compared with rosiglitazone 10 µM ([2]; 10 µM) | Effect on PTP1B expression level [3] | IC50 (α-glucosidase) | IC50 (yeast α-glucosidase [4]; mean ± SD, n = 3, read-out: α-Glucosidase IC50) | Enhancement of α-glucosidase inhibitory activity compared to 2 (yeast α-glucosidase [4]) | Ki (yeast α-glucosidase [5]; determined from Dixon plots, read-out: α-Glucosidase Ki) | α-Glucosidase Inhibition Type (yeast α-glucosidase [5]) | Ki ([6]; determined from Dixon plots, read-out: PTP1B Ki) | PTP1B Inhibition Type [6] | IC50 [1] | Insulin-stimulated glucose uptake compared with rosiglitazone 10 µM (112%) [2] | IC50 (yeast α-glucosidase [4]) | IC50 (PTP1B) | Ki (yeast α-glucosidase [5]) | Cytotoxicity (cell viability, MTT) in HepG2 cells (HepG2 cells) | Ki [6] | Insulin-stimulated glucose uptake (2-NBDG) ([2]; 10 µM, relative to normal control)
Oc1c(O)c(Br)c(COCc2c(Br)c(O)c(O)c(Br)c2Br)c(Br)c1Br [Compound 3, Bis-(2,3,6-tribromo-4,5-dihydroxybenzylmethyl ether)] | 5290 ± 80 nM | greater effect than rosiglitazone | excellent ability to reduce PTP1B expression level | 30 nM | 1920 ± 20 nM | 3.8 fold | 210 nM | Mixed-type | 2250 nM | Competitive | – | – | – | – | – | – | – | –
COCc1c(Br)c(O)c(O)c(Br)c1Br [Compound 2, 2,3,6-Tribromo-4,5-dihydroxybenzyl methyl ether] | – | – | – | – | – | – | – | Noncompetitive | – | Mixed-type | 8500 ± 450 nM | comparable | 7240 ± 20 nM | 3900 nM | 5540 nM | did not show toxicity until they were used at a concentration of 100 μM | 2400 nM | –
CN(CCOc1ccc(CC2SC(=O)NC2=O)cc1)c1ccccn1 (stereo not drawn) [Rosiglitazone, rosiglitazone, reference compound] | – | – | – | – | – | – | – | – | – | – | – | – | – | – | – | – | – | 112%
OCc1c(Br)c(O)c(O)c(Br)c1Br [Compound 1, 2,3,6-Tribromo-4,5-dihydroxybenzyl alcohol] | – | – | – | 11000 nM | – | 2.5 fold | – | Noncompetitive | – | Mixed-type | 7740 ± 140 nM | comparable | 2630 ± 110 nM | – | 1920 nM | slightly toxic effect at 100 μM | 1190 nM | –
